Test results reported in patent US20100204151A1, “USE OF A PEPTIDE AS A THERAPEUTIC AGENT” (priority 2007, published 2010).

System: drug-resistant Mycobacterium tuberculosis
Details: peptide 10 micrograms per ml, seven days

## Ac-HWAVGHL-NH2 [Acetyl-GRP (20-26), Ac-His-Trp-Ala-Val-Gly-His-Leu-NH2]
  % inhibition: 0.0%
